Results as given in US20150119352A1, “DINUCELOSIDE POLYPHOSPHATES FOR THE TREATMENT OF PAIN” (GlobalAcorn Ltd., priority 2012, published 2015).
“Also recorded” adds a separate entry of the source.

Experiments:
[1] = target: T1, rat homomeric P2X2 receptors (Rattus norvegicus, UniProt P49653); experiment: Whole-cell patch clamp on HEK cells expressing rat homomeric P2X2 receptors; assay type: cell-based; details: 1 μM; 10 μM ATP
T1 construct: expressed in transfected cells; host or cells: HEK 293
T1 sequence (P49653 1-472): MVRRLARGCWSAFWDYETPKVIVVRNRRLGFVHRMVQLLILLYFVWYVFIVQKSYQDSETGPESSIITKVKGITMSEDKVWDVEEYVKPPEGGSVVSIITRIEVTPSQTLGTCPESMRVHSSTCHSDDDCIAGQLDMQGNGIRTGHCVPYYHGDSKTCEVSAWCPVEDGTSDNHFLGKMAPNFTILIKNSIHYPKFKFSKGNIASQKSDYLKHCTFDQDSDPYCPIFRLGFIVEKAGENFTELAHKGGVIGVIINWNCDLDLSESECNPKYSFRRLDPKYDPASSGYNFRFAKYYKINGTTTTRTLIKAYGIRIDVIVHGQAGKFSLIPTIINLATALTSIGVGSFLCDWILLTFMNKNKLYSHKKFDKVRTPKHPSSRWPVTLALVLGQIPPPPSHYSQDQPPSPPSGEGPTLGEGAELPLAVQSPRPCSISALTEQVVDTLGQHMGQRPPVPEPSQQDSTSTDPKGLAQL
Experimental: (§1) FIG. 4. […] A. Example traces of responses induced by 10 μM ATP applied for 2 s every 2 min to HEK cells expressing rat homomeric P2X2 receptors in the presence and absence of 1 μM AppNHppA. B. Comparison of currents induced by the full agonist of P2X2 receptors, ATP, in the presence of 1 μM AppNHppA (right) and absence (left). C. The time course of the current in the presence and absence of 1 μM AppNHppA. D. Comparison of currents induced by the full agonist of rat homomeric P2X4 and P2X7 receptors, ATP, in the presence of 1 μM AppNHppA (right) and absence (left). Experiments were performed as in FIG. 2.
(§2) Trigeminal, nodose, DRG neurons or HEK cells were recorded in the whole-cell configuration while being continuously superfused (at 2 mL/min) with control solution containing (in mM): 152 NaCl, 5 KCl, 1 MgCl2, 2 CaCl2, 10 glucose, and 10 HEPES; pH was adjusted to 7.4 with NaOH and osmolarity was adjusted to 320 mOsM with glucose. […] Responses to selective P2X3 receptor agonist α,β-methylene-ATP (α,β-meATP; resistant to ectoATPase hydrolysis, Sigma-Aldrich) were measured using an EPC-9 amplifier and HEKA Patch Master software (HEKA Electronik, Germany). Cells were voltage-clamped at −70 mV. In most cells, series resistance was compensated by 80%. […]

[2] = target: T2, rat homomeric P2X7 receptors (Rattus norvegicus, UniProt Q64663); experiment: Whole-cell patch clamp, rat homomeric P2X7 receptors; assay type: cell-based; details: 1 μM; ATP
T2 construct: expressed in transfected cells
T2 sequence (Q64663 1-595): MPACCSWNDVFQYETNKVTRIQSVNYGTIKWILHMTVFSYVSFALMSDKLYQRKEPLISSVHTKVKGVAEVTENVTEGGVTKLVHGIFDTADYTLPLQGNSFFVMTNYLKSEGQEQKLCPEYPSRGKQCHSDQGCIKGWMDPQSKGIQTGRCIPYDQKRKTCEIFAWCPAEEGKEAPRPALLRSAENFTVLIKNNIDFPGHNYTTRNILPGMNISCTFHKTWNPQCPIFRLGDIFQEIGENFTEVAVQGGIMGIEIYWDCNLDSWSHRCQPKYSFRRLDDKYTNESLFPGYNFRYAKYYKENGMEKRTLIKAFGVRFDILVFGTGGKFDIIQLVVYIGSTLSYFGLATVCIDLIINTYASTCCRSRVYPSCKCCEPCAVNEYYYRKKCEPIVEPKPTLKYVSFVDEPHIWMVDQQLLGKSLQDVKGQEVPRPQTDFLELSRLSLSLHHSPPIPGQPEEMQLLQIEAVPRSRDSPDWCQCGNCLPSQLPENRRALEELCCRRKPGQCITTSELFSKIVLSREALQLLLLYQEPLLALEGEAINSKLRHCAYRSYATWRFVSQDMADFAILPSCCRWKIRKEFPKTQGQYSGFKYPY
Experimental: as §1, §2

[3] = test system: rats with Partial Sciatic Nerve Ligation (PSNL); experiment: Partial Sciatic Nerve Ligation (PSNL) thermal hyperalgesia test; assay type: in vivo, rat; details: 50 μM
Experimental: FIG. 9. […] Time-course of the effects of 50 μM (100 μL) of AppCH2ppA on PWL.
PSNL, with tight ligation of 33-50% of the sciatic nerve trunk, is a neuropathic pain model. We sub-cutaneously injected 50 μM of AppCH2ppA ([…]) on thermal hyperalgesia in rats with PSNL. […] Results are expressed as mean+/−S.E.M. In this model, the antinociceptive effect is 62%.

Row | Compound | effect on P2X2 receptor-mediated currents [1] | effect on P2X7 receptor-mediated currents [2] | effect on thermal hyperalgesia (PWL) ([3]; 100 μL, subcutaneous) | antinociceptive effect ([3]; sub-cutaneous, thermal hyperalgesia, PWL)
1 | Nc1ncnc2c1ncn2[C@@H]1O[C@H](COP(=O)(O)OP(=O)(O)NP(=O)(O)OP(=O)(O)OC[C@H]2O[C@@H](n3cnc4c(N)ncnc43)C(O)C2O)C(O)C1O (stereo in doubt) [AppNHppA] | not observed to produce any effects; also recorded: non-inhibitory effect | not observed to produce any effects; also recorded: non-inhibitory effect | – | –
2 | Nc1ncnc2c1ncn2[C@@H]1O[C@H](COP(=O)(O)OP(=O)(O)CP(=O)(O)OP(=O)(O)OC[C@H]2O[C@@H](n3cnc4c(N)ncnc43)C(O)C2O)C(O)C1O (stereo in doubt) [AppCH2ppA] | – | – | reduced thermal hyperalgesia | 62%
